According to patent publication US9693556B2, “Herbicidal pyridazinone derivatives” (SYNGENTA LIMITED, priority 2011, dated 2017):

Experiments:
Assay type in all cases: in vivo
Solanum nigrum (SOLNI) [1] = experiment: Pre-emergence herbicidal glasshouse test on Solanum nigrum; conditions: for PRE Application SOLNI: pre-emergence application, Solanum nigrum, damage score 1-5
Method in brief: (§1)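 Pre-emergence treatment came one day after sowing, post-emergence treatment after eight days' growth; both used 1000 g/h in a 0.5% Tween 20 acetone/water vehicle. Percent damage, scored 1–5, was read 13 days later.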

[2] = tested on: Alopecurus myosuroides (ALOMY); experiment: Post-emergence herbicidal glasshouse test on Alopecurus myosuroides; conditions: for POST Application ALOMY: post-emergence application, Alopecurus myosuroides, damage score 1-5
Method in brief: as §1

[3] = tested on: Alopecurus myosuroides (ALOMY); experiment: Pre-emergence herbicidal glasshouse test on Alopecurus myosuroides; conditions: for PRE Application ALOMY: pre-emergence application, Alopecurus myosuroides, damage score 1-5
Method in brief: as §1

[4] = tested on: Echinochloa crus-galli (ECHCG); experiment: Pre-emergence herbicidal glasshouse test on Echinochloa crus-galli; conditions: for PRE Application ECHCG: pre-emergence application, Echinochloa crus-galli, damage score 1-5
Method in brief: as §1

Setaria faberi (SETFA) [5] = experiment: Post-emergence herbicidal glasshouse test on Setaria faberi; conditions: for POST Application SETFA: post-emergence application, Setaria faberi, damage score 1-5
Method in brief: as §1

[6] = tested on: Ipomoea hederacea (IPOHE); experiment: Pre-emergence herbicidal glasshouse test on Ipomoea hederacea; conditions: for PRE Application IPOHE: pre-emergence application, Ipomoea hederacea, damage score 1-5
Method in brief: as §1

Setaria faberi (SETFA) [7] = experiment: Pre-emergence herbicidal glasshouse test on Setaria faberi; conditions: for PRE Application SETFA: pre-emergence application, Setaria faberi, damage score 1-5
Method in brief: as §1

Solanum nigrum (SOLNI) [8] = experiment: Post-emergence herbicidal glasshouse test on Solanum nigrum; conditions: for POST Application SOLNI: post-emergence application, Solanum nigrum, damage score 1-5
Method in brief: as §1

[9] = tested on: Ipomoea hederacea (IPOHE); experiment: Post-emergence herbicidal glasshouse test on Ipomoea hederacea; conditions: for POST Application IPOHE: post-emergence application, Ipomoea hederacea, damage score 1-5
Method in brief: as §1

[10] = tested on: Amaranthus retoflexus (AMARE); experiment: Pre-emergence herbicidal glasshouse test on Amaranthus retoflexus; conditions: for PRE Application AMARE: pre-emergence application, Amaranthus retoflexus, damage score 1-5
Method in brief: as §1

[11] = tested on: Echinochloa crus-galli (ECHCG); experiment: Post-emergence herbicidal glasshouse test on Echinochloa crus-galli; conditions: for POST Application ECHCG: post-emergence application, Echinochloa crus-galli, damage score 1-5
Method in brief: as §1

[12] = tested on: Amaranthus retoflexus (AMARE); experiment: Post-emergence herbicidal glasshouse test on Amaranthus retoflexus; conditions: for POST Application AMARE: post-emergence application, Amaranthus retoflexus, damage score 1-5
Method in brief: as §1

[13] = pre-emergence, 1000 g/h, evaluated after 13 days
[14] = post-emergence, 1000 g/h, evaluated after 13 days

Structure (SMILES)	PRE Application SOLNI (Solanum nigrum (SOLNI) [1])	POST Application ALOMY [2]	PRE Application ALOMY [3]	PRE Application ECHCG [4]	POST Application SETFA (Setaria faberi (SETFA) [5])	PRE Application IPOHE [6]	PRE Application SETFA (Setaria faberi (SETFA) [7])	POST Application SOLNI (Solanum nigrum (SOLNI) [8])	POST Application IPOHE [9]	PRE Application AMARE [10]	POST Application ECHCG [11]	POST Application AMARE [12]	also measured
Cc1ccc(-n2cccc(-c3cnn(C)c(=O)c3O)c2=O)cc1 [Compound 9.017]													PRE Application SOLNI herbicidal damage (five point scale) (Solanum nigrum (SOLNI) [1]; [13]): 1 (1=0-19% damage); POST Application ALOMY herbicidal damage (five point scale) [2, 14]: 2 (2=20-39% damage); PRE Application ALOMY herbicidal damage (five point scale) [3, 13]: 2 (2=20-39% damage); PRE Application ECHCG herbicidal damage (five point scale) [4, 13]: 1 (1=0-19% damage); POST Application SETFA herbicidal damage (five point scale) (Setaria faberi (SETFA) [5]; [14]): 2 (2=20-39% damage); PRE Application IPOHE herbicidal damage (five point scale) [6, 13]: 2 (2=20-39% damage); PRE Application SETFA herbicidal damage (five point scale) (Setaria faberi (SETFA) [7]; [13]): 1 (1=0-19% damage); POST Application SOLNI herbicidal damage (five point scale) (Solanum nigrum (SOLNI) [8]; [14]): 4 (4=60-79% damage); POST Application IPOHE herbicidal damage (five point scale) [9, 14]: 2 (2=20-39% damage); PRE Application AMARE herbicidal damage (five point scale) [10, 13]: 1 (1=0-19% damage); POST Application ECHCG herbicidal damage (five point scale) [11, 14]: 5 (5=80-100% damage); POST Application AMARE herbicidal damage (five point scale) [12, 14]: 3 (3=40-59% damage)
CCCn1c(-c2cccc(Cl)c2)ncc(-c2cnn(C)c(=O)c2O)c1=O [Compound 10.002]	1 (1=0-19% damage)	1 (1=0-19% damage)	1 (1=0-19% damage)	1 (1=0-19% damage)	1 (1=0-19% damage)	1 (1=0-19% damage)	1 (1=0-19% damage)	5 (5=80-100% damage)	4 (4=60-79% damage)	4 (4=60-79% damage)	2 (2=20-39% damage)	5 (5=80-100% damage)	
Cn1ncc(-c2cnc(-c3cccc(F)c3)n(C3CCCCC3)c2=O)c(O)c1=O [Compound 10.003, 3-cyclohexyl-2-(3-fluorophenyl)-5-(5-hydroxy-1-methyl-6-oxo-pyridazin-4-yl)pyrimidin-4-one]	1 (1=0-19% damage)	1 (1=0-19% damage)	1 (1=0-19% damage)	1 (1=0-19% damage)	4 (4=60-79% damage)	1 (1=0-19% damage)	1 (1=0-19% damage)	5 (5=80-100% damage)	4 (4=60-79% damage)	5 (5=80-100% damage)	5 (5=80-100% damage)	5 (5=80-100% damage)	
Cc1ccc(Cl)cc1-n1c(-c2cccc(F)c2)ncc(-c2cnn(C)c(=O)c2O)c1=O [Compound 10.004]	1 (1=0-19% damage)	1 (1=0-19% damage)	1 (1=0-19% damage)	1 (1=0-19% damage)	3 (3=40-59% damage)	1 (1=0-19% damage)	1 (1=0-19% damage)	5 (5=80-100% damage)	4 (4=60-79% damage)	2 (2=20-39% damage)	4 (4=60-79% damage)	5 (5=80-100% damage)	
